Experimental data from patent publication US8574831B2, “Mutational profiles in HIV-1 reverse transcriptase correlated with phenotypic drug resistance” (Virco N.V., priority 2000, dated 2013).

Test system: HIV with mutations in the HIV protease sequence
Experiment: Phenotypic fold resistance to protease inhibitors, protease mutations 84A/84L/84C/54M/54L/54V in a background (Examples 8-13)
Type: cell-based, HIV-1
Summary of the method: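 Recombinant-virus phenotyping: patient-derived PR/RT sequences amplified by PCR and recombined in CD4+ T cells into an HXB2 proviral clone deleted for those sequences. Chimeric viruses grown across drug concentrations; IC50 determined, and fold-resistance expressed as IC50 ratio versus wild-type susceptible laboratory HIV-1 tested in parallel.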

Q: Which “mean fold increase in resistance” value (Table 9 #1, protease genotype WT) does the source give for `CC(C)c1nc(CN(C)C(=O)N[C@H](C(=O)N[C@@H](Cc2ccccc2)C[C@H](O)[C@H](Cc2ccccc2)NC(=O)OCc2cncs2)C(C)C)cs1` [Ritonavir, ritonavir] here?
A: 0.6 fold

Q: What about the “mean fold increase in resistance” value (Table 9 #2, protease genotype 10I) of the same compound?
A: 1.15 fold

Q: And the “mean fold increase in resistance” value (Table 9 #3, protease genotype 46I)?
A: 0.8 fold

Q: And the “mean fold increase in resistance” value (Table 9 #4, protease genotype 46I + 84V)?
A: 4.6 fold

Q: What about the “mean fold increase in resistance” value (Table 9 #5, protease genotype 46I + 84A) of the same compound?
A: 51.8 fold

Q: And the “mean fold increase in resistance” value (Table 9 #6, protease genotype 10I + 46I)?
A: 1.5 fold

Q: And the “mean fold increase in resistance” value (Table 9 #7, protease genotype 10I + 46I + 84V)?
A: 11.9 fold

Q: And the “mean fold increase in resistance” value (Table 9 #8, protease genotype 10I + 46I + 84A)?
A: 77.3 fold

Q: What about the “mean fold increase in resistance” value (Table 9 #9, protease genotype 10L/I + 46I + 84A) of the same compound?
A: 114 fold

Q: What about the “mean fold increase in resistance” value (Table 9 #10, protease genotype 10I + 46I + 84A) of the same compound?
A: 44.5 fold

Q: What about the “mean fold increase in resistance” value (Table 9 #11, protease genotype 46I + 71V) of the same compound?
A: 1.4 fold

Q: What about the “mean fold increase in resistance” value (Table 9 #12, protease genotype 46I + 71V + 84V/I) of the same compound?
A: 1.8 fold

Q: What about the “mean fold increase in resistance” value (Table 9 #13, protease genotype 46I + 71V + 84A) of the same compound?
A: 102.2 fold

Q: And the “mean fold increase in resistance” value (Table 9 #14, protease genotype 10F + 46I + 71V)?
A: 4.1 fold

Q: And the “mean fold increase in resistance” value (Table 9 #15, protease genotype 10I + 46I + 71V + 84V)?
A: 45.6 fold

Q: What about the “mean fold increase in resistance” value (Table 9 #16, protease genotype 10I + 46I + 71V + 84A) of the same compound?
A: 114.9 fold

Q: What about the “mean fold increase in resistance” value (Table 9 #17, protease genotype 10V + 46I + 71T + 84A) of the same compound?
A: 91.9 fold

Q: And the “mean fold increase in resistance” value (Table 9 #18, protease genotype 10I + 46I + 71V + 77I)?
A: 1.65 fold

Q: And the “mean fold increase in resistance” value (Table 9 #19, protease genotype 10I + 46I + 71V + 77I + 84V)?
A: 3.1 fold

Q: And the “mean fold increase in resistance” value (Table 9 #20, protease genotype 10I + 46I + 71V + 77I + 84A)?
A: 121.3 fold

Q: What about the “mean fold increase in resistance” value (Table 9 #21, protease genotype 10I + 33L/I + 46I + 71V + 77V/I + 84A) of the same compound?
A: 38.6 fold

Q: What about the “mean fold increase in resistance” value (Table 10 #1, protease genotype 10I + 36I + 71V) of the same compound?
A: 1.2 fold

Q: What about the “mean fold increase in resistance” value (Table 10 #2, protease genotype 10I + 36I + 71I + 84V) of the same compound?
A: 1.5 fold

Q: What about the “mean fold increase in resistance” value (Table 10 #3, protease genotype 10I + 36I + 71I + 84L) of the same compound?
A: 0.8 fold

Q: And the “mean fold increase in resistance” value (Table 11 #1, protease genotype WT)?
A: 0.6 fold

Q: What about the “mean fold increase in resistance” value (Table 11 #2, protease genotype 84V) of the same compound?
A: 2.4 fold

Q: And the “mean fold increase in resistance” value (Table 11 #3, protease genotype 84C)?
A: 2.9 fold

Q: And the “mean fold increase in resistance” value (Table 11 #4, protease genotype 10I)?
A: 1.2 fold

Q: What about the “mean fold increase in resistance” value (Table 11 #5, protease genotype 10I + 84V) of the same compound?
A: 6.5 fold

Q: And the “mean fold increase in resistance” value (Table 11 #6, protease genotype 10I + 84C)?
A: 5.4 fold

Q: And the “mean fold increase in resistance” value (Table 11 #7, protease genotype 77I)?
A: 0.4 fold

Q: And the “mean fold increase in resistance” value (Table 11 #8, protease genotype 77I + 84V)?
A: 5.0 fold

Q: And the “mean fold increase in resistance” value (Table 11 #9, protease genotype 77I + 84C)?
A: 2.8 fold

Q: What about the “mean fold increase in resistance” value (Table 11 #10, protease genotype 77I + 84C) of the same compound?
A: 3.2 fold

Q: What about the “mean fold increase in resistance” value (Table 11 #11, protease genotype 10I + 24I + 36I + 46I + 71V + 84C) of the same compound?
A: 47 fold

Q: And the “Fold change in IC50” value (Table 12, V19263, genotype 77I)?
A: 0.4 fold

Q: What about the “Fold change in IC50” value (Table 12, V20160, genotype WT) of the same compound?
A: 0.6 fold

Q: And the “Fold change in IC50” value (Table 12, V021667, genotype 10I)?
A: 1.2 fold

Q: And the “Fold change in IC50” value (Table 12, V030496, genotype 10I + 77I)?
A: 0.5 fold

Q: And the “Fold change in IC50” value (Table 12, V048869, genotype 10I + 54M + 77I + 90M)?
A: 20.0 fold

Q: What about the “Fold change in IC50” value (Table 12, V048872, genotype 33F + 54M + 77I + 90M) of the same compound?
A: 8.7 fold

Q: What about the “Fold change in IC50” value (Table 12, V048873, genotype 33F + 54M + 77I + 90M) of the same compound?
A: 11.4 fold

Q: What about the “Fold change in IC50” value (Table 12, V048877, genotype 10I + 33F + 77I + 90M) of the same compound?
A: 20.5 fold

Q: What about the “Fold change in IC50” value (Table 12, V048878, genotype 10I + 33F + 54M + 71V + 77I + 90M) of the same compound?
A: 17.2 fold

Q: What about the “Fold change in IC50” value (Table 12, V048879, genotype 10I + 33F + 54M + 71V + 77I + 90M) of the same compound?
A: 74.0 fold

Q: What about the “Fold change in IC50” value (Table 12, V048880, genotype 10I + 33F + 77I + 90M) of the same compound?
A: 3.6 fold

Q: And the “Fold change in IC50” value (Table 12, V052940, genotype 71V)?
A: 0.4 fold

Q: And the “Fold change in IC50” value (Table 12, V052942, genotype 10I + 71V)?
A: 0.6 fold

Q: What about the “Fold change in IC50” value (Table 12, V052943, genotype 10I + 90M) of the same compound?
A: 1.8 fold

Q: What about the “Fold change in IC50” value (Table 12, V052944, genotype 10I + 90M) of the same compound?
A: 1.5 fold

Q: What about the “Fold change in IC50” value (Table 12, V052945, genotype 77I + 90M) of the same compound?
A: 1.9 fold

Q: What about the “Fold change in IC50” value (Table 12, V052946, genotype 71V + 90M) of the same compound?
A: 2.0 fold

Q: And the “Fold change in IC50” value (Table 12, V052947, genotype 10I + 77I + 90M)?
A: 6.9 fold

Q: What about the “Fold change in IC50” value (Table 12, V052948, genotype 10I + 71V + 90M) of the same compound?
A: 10.5 fold

Q: And the “Fold change in IC50” value (Table 12, V052949, genotype 10I + 71V + 77I + 90M)?
A: 2.3 fold

Q: What about the “Fold change in IC50” value (Table 12, V052950, genotype 33F) of the same compound?
A: 1.5 fold

Q: What about the “Fold change in IC50” value (Table 12, V052951, genotype 33F + 77I) of the same compound?
A: 0.3 fold

Q: What about the “Fold change in IC50” value (Table 12, V052953, genotype 10I + 33F + 77I) of the same compound?
A: 1.1 fold

Q: And the “Fold change in IC50” value (Table 12, V052954, genotype 33F + 77I + 90M)?
A: 2.2 fold

Q: What about the “Fold change in IC50” value (Table 12, V052955, genotype 33F + 71V + 90M) of the same compound?
A: 77.9 fold

Q: What about the “Fold change in IC50” value (Table 12, V052977, genotype 10I + 33F + 54M) of the same compound?
A: 35.5 fold

Q: What about the “Fold change in IC50” value (Table 12, V052978, genotype 10I + 33F + 54M + 71V + 90M) of the same compound?
A: 17.9 fold

Q: And the “Fold change in IC50” value (Table 12, V052979, genotype 10I + 54M)?
A: 20.0 fold

Q: And the “Fold change in IC50” value (Table 12, V052980, genotype 10I + 54M + 90M)?
A: 4.1 fold

Q: And the “Fold change in IC50” value (Table 12, V052981, genotype 10I + 54M + 71V + 90M)?
A: 9.4 fold

Q: What about the “Fold change in IC50” value (Table 12, V052982, genotype 10I + 54M + 71V + 77I + 90M) of the same compound?
A: 13.4 fold

Q: And the “Fold change in IC50” value (Table 12, V053832, genotype 10I + 33F)?
A: 2.9 fold
